Source: article PMC10574185, “Encapsulation and Biological Activity of Hesperetin Derivatives with HP-β-CD” (Molecules, 2023)
In brackets after ≈: the same amount, converted by molar mass. Several values for one entry are separate records, joined by “and”; a condition that tells them apart may be missing. Identical values can stand only once. Like-named read-outs stand apart in the source and are kept apart here.

Tests used:
[1] = Phase solubility studies with HP-β-CD; assay type: physicochemical; conditions: for solubility at 60 min: thermodynamic from solid
Procedure: The purpose of this part of the study was to determine the solubility of compounds of hesperetin and its Schiff bases (HHSB, HIN, and HTSC) in aqueous solution at different pHs and temperatures, and the effect of their inclusion in modified HP-β-CD on the aqueous solubility of these compounds at different pH values.
The effect of the presence of HP-β-CD at different temperatures (25, 37, and 60 °C) was determined by developing phase solubility diagrams.
In accordance with the methodology described in Section 3.4, excess amounts of each tested substance were added to aqueous solution with increasing concentration of HP-β-CD up to 16 mM, respectively, in 2 mL of 100 mM sodium acetate buffer (pH 3.6), 100 mM sodium phosphate buffer (pH 6.5) or 100 mM sodium borate buffer (pH 8.5).
Phase solubility studies were conducted according to [64] with some modifications. Excess amounts of each tested substance were added to aqueous solution with increasing concentration of HP-β-CD up to 16 mM, in 2 mL of 100 mM sodium acetate buffer (pH 3.6), 100 mM sodium phosphate buffer (pH 6.5), or 100 mM sodium borate buffer (pH 8.5), respectively. The samples were maintained in an ultrasonic bath at various temperatures (25, 37, and 60 °C) for 60 min to reach equilibrium. The aqueous solutions were then filtered through 0.45 µm acetate cellulose (CA) membrane filter and diluted. The tested compound concentration on each clear filtrate was spectrophotometrically determined by measuring at their wavelength maximum.
The complexation constant (Kc) between studied molecules and HP-β-CD was determined by using Equation (1):(1) Kc=slope/S0 (1−slope) where S0 means the water solubility of the studied substance, and “slope” means the slope of the phase solubility diagram.
Complexation efficiency was calculated from the slope of the phase solubility diagram using Equation (2):(2) CE=S0×Kc=slope/1−slope
The CE was also applied to evaluate the molar ratio in solution of tested systems using Equation (3):(3) Compound:HP−β−CD=1:(1+1/CE)

[2] = ABTS^•+ radical cation decolorization assay; conditions: concentration 0.1 mg/mL, mean ± SD
Procedure: (§1) To evaluate the antioxidant ability of the tested systems, antioxidant analysis was performed. Antioxidants can scavenge hydroxyl radicals in two ways: by reacting directly with hydroxyl radicals (DPPH^•, ABTS^•+) or indirectly inhibiting the formation of hydroxyl radicals by chelating metal ions involved in the production of hydroxyl radicals. The antioxidant activity of the systems studied was investigated by using DPPH^• scavenging, ABTS^•+ scavenging ability, and Fe^2+-chelating ability. In this study, the antioxidant activity of pure hesperetin and its Schiff bases (HHSB, HIN, and HTSC) and HP-β-CD complexes were compared, and the positive control was Trolox.
Antioxidant activity using ABTS^•+ cation radical scavenging was determined according to a modified method. ABTS solution (2.5 mM) was mixed with 1.0 mM potassium persulfate solution and left at room temperature in the dark for 12-24 h. After this time, the absorbance of the finished ABTS^•+ solution was corrected with ethanol to 0.70 ± 0.02 at 745 nm. A total of 100 µL of the sample was reacted for 5 min with 2 mL of ABTS^•+ solution (A745 nm = 0.70 ± 0.02). The absorbance value of the reaction mixture was measured at 745 nm. […] Scavenging activity (%) = [1 − (Asample − Ablank)/Acontrol] × 100%(4) where Acontrol is the absorbance value of the control (ABTS^•+ solution with water), Ablank is the absorbance value of samples mixed with anhydrous ethanol, and Asample is the absorbance value of the added test sample to ABTS^•+ solution at 745 nm, respectively.

[3] = FRAP assay (ferric-ion reducing antioxidant power); conditions: mean ± SD
Procedure: as §1
The antioxidant capacity determined by the FRAP assay (the ability of plasma to reduce iron) was carried out using a modification of the FRAP assay. The FRAP reagent consisted of the following solutions: 300 mM acetate, pH 3.6 glacial acetic acid buffer, 20 mM ferric chloride (FeCl3×6H2O), and 10 mM 2,4,6-tripyridyl-S-triazine (TPTZ) prepared in 40 mM HCl. The aforementioned solutions were mixed together in a ratio of 10:1:1 (v/v/v). The FRAP assay consisted of adding 15 µL of sample to 1.98 mL of reagent and incubating the mixture at 37 °C for 4 min. Absorbance measurement was recorded at 593 nm against a blank. Total antioxidant capacity was estimated relative to a standard of known FRAP concentration, ferrous sulfate.

[4] = tested on: HaCaT cells; assay: MTT cytotoxicity assay on HaCaT keratinocytes; assay type: cell-based, human
Procedure: HaCaT keratinocyte cells were exposed to chemical compounds at nine different concentrations (from 3.9 to 995.6 µg/mL) in four replicates of each concentration for 24 and 48 h.
All compounds were dissolved in sterile DMSO (Merck Life Science, Warsaw, Poland) and were sterile-filtered with 0.22 µm pore size sterile disposable syringe filters.
HaCaT cell line (the normal immortalised human keratinocytes) used in the study derived from the 35th passage (the original material created by Prof. Dr. Petra Boukamp and Dr. Norbert Fusenig) was purchased from Cell Line Service GmbH (Eppelheim, Germany). The cells were cultured and propagated as described previously.
The cytotoxicity was assessed with MTT assay according to methodology applied previously.
The following final concentrations (in four replicates per experiment) of the test compounds were tested (µg/mL): 3.9; 7.8; 15.6; 31.1; 62.2; 124.5; 248.9; 497.8, and 995.6. […] Three independent experiments were conducted. The vehicle was cells in the culture medium. The assay was conducted for 24 h and 48 h.

## COc1ccc(C2C/C(=N\NC(=O)c3ccccc3)c3c(O)cc(O)cc3O2)cc1O (racemic) [HHSB]
[1]; 25 °C, pH 3.6, with HP-β-CD
  CE complexation efficiency: 1.4%
  Kc complexation constant: 341 ± 79 M⁻¹
[1]; 25 °C, pH 6.5, with HP-β-CD
  CE complexation efficiency: 0.7%
  Kc complexation constant: 150 ± 21 M⁻¹
[1]; 25 °C, pH 8.5, with HP-β-CD
  CE complexation efficiency: 0.7%
  Kc complexation constant: 150 ± 19 M⁻¹
[1]; 37 °C, pH 3.6, with HP-β-CD
  CE complexation efficiency: 1.1%
  Kc complexation constant: 226 ± 92 M⁻¹
[1]; 37 °C, pH 6.5, with HP-β-CD
  CE complexation efficiency: 2.5%
  Kc complexation constant: 618 ± 36 M⁻¹
[1]; 37 °C, pH 8.5, with HP-β-CD
  CE complexation efficiency: 0.15%
  Kc complexation constant: 100 ± 34 M⁻¹
[1]; 60 °C, pH 3.6, with HP-β-CD
  CE complexation efficiency: 0.9%
  Kc complexation constant: 250 ± 20 M⁻¹
[1]; 60 °C, pH 6.5, with HP-β-CD
  CE complexation efficiency: 1.8%
  Kc complexation constant: 155 ± 4 M⁻¹
[1]; 60 °C, pH 8.5
  increase of solubility with HP-β-CD: five-fold
[1]; 60 °C, pH 8.5, with HP-β-CD
  CE complexation efficiency: 7%
  Kc complexation constant: 728 ± 82 M⁻¹
[1]; aqueous buffer, 25 °C, pH 3.6 sodium acetate buffer, without cyclodextrin, read-out: solubility without HP-β-CD (value in brackets) (converted)
  solubility at 60 min: 18 µM (≈ 7.57 µg/mL)
[1]; aqueous buffer, 25 °C, pH 6.5 sodium phosphate buffer, without cyclodextrin, read-out: solubility without HP-β-CD (value in brackets) (converted)
  solubility at 60 min: 25 µM (≈ 10.5 µg/mL)
[1]; aqueous buffer, 25 °C, pH 8.5 sodium borate buffer, without cyclodextrin, read-out: solubility without HP-β-CD (value in brackets) (converted)
  solubility at 60 min: 25 µM (≈ 10.5 µg/mL)
[1]; aqueous buffer, 37 °C, pH 3.6 sodium acetate buffer, without cyclodextrin, read-out: solubility without HP-β-CD (value in brackets) (converted)
  solubility at 60 min: 20 µM (≈ 8.41 µg/mL)
[1]; aqueous buffer, 37 °C, pH 6.5 sodium phosphate buffer, without cyclodextrin, read-out: solubility without HP-β-CD (value in brackets) (converted)
  solubility at 60 min: 5 µM (≈ 2.1 µg/mL)
[1]; aqueous buffer, 37 °C, pH 8.5 sodium borate buffer, without cyclodextrin, read-out: solubility without HP-β-CD (value in brackets) (converted)
  solubility at 60 min: 5 µM (≈ 2.1 µg/mL)
[1]; aqueous buffer, 60 °C, pH 3.6 sodium acetate buffer, without cyclodextrin, read-out: solubility without HP-β-CD (value in brackets) (converted)
  solubility at 60 min: 12 µM (≈ 5.05 µg/mL)
[1]; aqueous buffer, 60 °C, pH 6.5 sodium phosphate buffer, without cyclodextrin, read-out: solubility without HP-β-CD (value in brackets) (converted)
  solubility at 60 min: 27 µM (≈ 11.4 µg/mL)
[1]; aqueous buffer, 60 °C, pH 8.5 sodium borate buffer, without cyclodextrin, read-out: solubility without HP-β-CD (value in brackets) (converted)
  solubility at 60 min: 18 µM (≈ 7.57 µg/mL)
[1]; 25 °C, pH 3.6 sodium acetate buffer, with HP-β-CD, read-out: S0 (solubility with HP-β-CD)
  solubility at 60 min: 41 ± 21 µM (≈ 17.2 µg/mL)
[1]; 25 °C, pH 6.5 sodium phosphate buffer, with HP-β-CD, read-out: S0 (solubility with HP-β-CD)
  solubility at 60 min: 45 ± 5 µM (≈ 18.9 µg/mL)
[1]; 25 °C, pH 8.5 sodium borate buffer, with HP-β-CD, read-out: S0 (solubility with HP-β-CD)
  solubility at 60 min: 45 ± 5 µM (≈ 18.9 µg/mL)
[1]; 37 °C, pH 3.6 sodium acetate buffer, with HP-β-CD, read-out: S0 (solubility with HP-β-CD)
  solubility at 60 min: 50 ± 10 µM (≈ 21 µg/mL)
[1]; 37 °C, pH 6.5 sodium phosphate buffer, with HP-β-CD, read-out: S0 (solubility with HP-β-CD)
  solubility at 60 min: 41 ± 23 µM (≈ 17.2 µg/mL)
[1]; 37 °C, pH 8.5 sodium borate buffer, with HP-β-CD, read-out: S0 (solubility with HP-β-CD)
  solubility at 60 min: 15 ± 6.1 µM (≈ 6.31 µg/mL)
[1]; 60 °C, pH 3.6 sodium acetate buffer, with HP-β-CD, read-out: S0 (solubility with HP-β-CD)
  solubility at 60 min: 36 ± 14 µM (≈ 15.1 µg/mL)
[1]; 60 °C, pH 6.5 sodium phosphate buffer, with HP-β-CD, read-out: S0 (solubility with HP-β-CD)
  solubility at 60 min: 115 ± 53 µM (≈ 48.3 µg/mL)
[1]; 60 °C, pH 8.5 sodium borate buffer, with HP-β-CD, read-out: S0 (solubility with HP-β-CD)
  solubility at 60 min: 96 ± 42 µM (≈ 40.4 µg/mL)
[2]
  ABTS^•+ antioxidant activity: 98.11 ± 5.0%
[3]
  FRAP antioxidant activity: 0.000005 ± 0.00005 mmolFe(II)/L
[4]; 48 h, 3.9 µg/mL
  cytotoxicity at the lowest concentration tested: 54.8% ± 5.4
[4]; 48 h, 995.6 µg/mL
  cytotoxicity at the highest concentration tested: 79.1% ± 6.6
[4]; Homo sapiens, MTT, 24 h exposure, read-out: IC50 After 24 h
  IC50: 418 µg/mL (≈ 993 µM)
[4]; MTT, 48 h exposure, IC50 impossible to count
  IC70 after 48 h: 163.5 µg/mL and 163.5 ^b µg/mL
